From article PMC10610379, “Epidrugs as Promising Tools to Eliminate Plasmodium falciparum Artemisinin-Resistant and Quiescent Parasites” (Pharmaceutics, 2023)
Read-outs that look alike come from different tables or passages of the source.

Experiments:
[1] = test system: monocytes; design: method as in PMID 27091512; settings: data from literature ref 47, read-out: Cytotoxicity: CC50 (monocytes); cited from earlier work
[2] = test system: Plasmodium falciparum F32-TEM (artemisinin-sensitive twin line); experiment: Standard chemosensitivity assay (SYBR Green I), F32-TEM; format: cell-based; settings: Plasmodium falciparum, read-out: Antiplasmodial Activity: IC50, F32-TEM
Protocol: (§1) They differ by eight mutations in seven genes (PF3D7_0110400, PF3D7_1343700, PF3D7_0213400, PF3D7_1115700, PF3D7_1302100, PF3D7_1459600, PF3D7_1464500) among them the M476I mutation on the kelch13 gene. F32-ART and F32-TEM strains have RSA^0–3 h values up to 12% and less than 0.1%, respectively. […] Both strains were cultured, in the same conditions, according to the Trager and Jensen protocol with modifications. Briefly, parasites were cultivated in RPMI-1640 medium (Biowest) at 2% hematocrit in human red blood cells and 5% human serum (EFS, French Blood Bank) under 5% CO2 in a humid atmosphere at 37 °C.
(§2) The antimalarial activities of the compounds were evaluated on both strains. […] Antimalarial activities were determined with the SYBR Green I method. Each drug concentration was tested in triplicate. The parasites were incubated with the drugs for 48 h. Plates were read on a BioTek FLX800 Microplate Fluorescence Reader (Bio-Tek instruments, Winooski, VT, USA) (λexcitation = 485 nm, λemission = 528 nm). Control parasite culture (i.e., RPMI with 0.5% DMSO) was referred to as 100% growth. IC50 and IC90 values were determined using GraphPad Prism version 7.05 (GraphPad Software, San Diego, CA, USA). Results were the mean of 3 independent experiments. When it is relevant, statistical significance between results obtained with both parasite strains was determined by a Mann–Whitney test using GraphPad Prism version 7.05.

[3] = test system: Plasmodium falciparum F32-ART (artemisinin-resistant strain); experiment: Standard chemosensitivity assay (SYBR Green I), F32-ART; format: cell-based; settings: for IC50: Plasmodium falciparum, read-out: Antiplasmodial Activity: IC50, F32-ART; for Selectivity Index CC50/IC50: ratio cytotoxicity (mammalian cell type of the CC50)/antiplasmodial activity on F32-ART
Protocol: as §1, §2

[4] = test system: NOMO1; settings: read-out: Cytotoxicity: CC50 (NOMO1), data from literature ref 51; cited from earlier work
[5] = Cytotoxicity evaluation by MTT assay; format: cell-based; settings: monkey, Vero cells, * mean of 2 experiments
Protocol: The cytotoxicity of all newly synthesized compounds was evaluated on the Vero cell lines (isolated from monkey kidney cells, gift from the Faculty of Pharmacy, Toulouse, France) by MTT assay according to Mosmann with slight modifications. Briefly, cells in MEM medium supplemented with 10% fetal calf serum, 2 mM L-glutamine, antibiotics (100 U/mL penicillin and 100 µg/mL streptomycin), and NEAA 1X, were seeded in 96-well plates. After a 24-h incubation at 37 °C and 5% CO2 in a humidified atmosphere, compounds were added with concentrations ranging from 5 nM to 50 μM in duplicate. […] The security index was calculated as the ratio of cytotoxicity/antiplasmodial activity.

[6] = test system: P. falciparum strains F32-ART and F32-TEM; experiment: Standard chemosensitivity assay, both strains; format: cell-based; settings: Plasmodium falciparum, F32, read-out: Antiplasmodial activity IC50
Protocol: as §2

[7] = test system: H4IIErat; settings: read-out: Cytotoxicity: CC50 (H4IIErat), data from literature ref 54; cited from earlier work
[8] = test system: ART-resistant parasites F32-ART at the quiescent stage; experiment: Quiescent-stage Survival Assay (QSA), 48-h exposure; format: cell-based, Plasmodium falciparum
Protocol: The sensitivity of the ART-resistant parasites F32-ART at the quiescent stage towards the different molecules was determined using the QSA (Quiescent-stage Survival Assay), as previously described.
Epidrugs were tested at their IC90 values. In the present study, quiescence was induced using 3 µM of ART or 700 nM of DHA [28]. Thus, D-sorbitol synchronized ring-stage parasites at 3% parasitemia and 2% hematocrit (5 mL of culture per well in 6-well plates) were first exposed to 6 h of ART or DHA to induce quiescence and then to 48 h of the combination “ART or DHA + compound to be tested”. The combinations “ART 6 h/ART 48 h” or “DHA 6 h/DHA 48 h” were used as controls. The compounds were evaluated, in parallel, on proliferating parasites, i.e., without any pre-treatment. After drug exposure, parasite cultures were washed with 40 mL of RPMI-1640 medium and cultured in drug-free conditions supplemented with 10% human serum in new wells. The parasitemia for each condition was then microscopically monitored every 2 days. Culture media were renewed twice a week and 25 µL of fresh red blood cells were added once a week. Obtained data were used to perform Kaplan–Meier survival analyses considering censored data. The outcome was defined as the day when parasite cultures reached the initial parasitemia (3%) and data were considered as censored if no parasite recrudescence was observed during the 30-day experiment timeframe. When relevant, statistical significance between results obtained for the conditions “ART/ART” and “ART/ART + compound to be tested” or “DHA/DHA” and “DHA/DHA + compound to be tested” was determined by a Log Rank (Mantel Cox) test using GraphPad Prism version 7.05. For the best compounds targeting histones, in order to compare western blots data, modified QSAs were carried out by comparing “DHA 6 h/DHA 24 h” versus “DHA 6 h/DHA + compound to be tested 24 h”.

[9] = test system: GM15850; design: method as in PMID 18953021; settings: data from literature ref 46, read-out: Cytotoxicity: CC50 (GM15850); cited from earlier work
[10] = F32-TEM, 48 h incubation, SYBR Green I, mean ± SEM of 3 experiments (* mean of 2)
[11] = F32-ART, 48 h incubation, SYBR Green I, mean ± SEM of 3 experiments (* mean of 2)

Compound: Cn1cc(/C=C/C(=O)c2cccc(F)c2)cc1/C=C/C(=O)NO [MC 1568]
- CC50 [1]: 10 µM
- IC50 [2, 10]: > 10 µM
- IC50 [3, 11]: > 10 µM
- Selectivity Index CC50/IC50 [3]: <1

Compound: CCCCCCCc1ccc(CCc2cccc(O)c2C(=O)O)cc1 [MG149]
- CC50 [4]: 51 µM
- IC50 ([2]; F32, 48 h): > 10 µM
- IC50 ([3]; F32, 48 h): > 10 µM

Compound: Cc1ncsc1-c1ccc(CNC(=O)[C@@H]2C[C@@H](O)CN2C(=O)[C@@H](NC(=O)COCCOCCOCCNC(=O)C[C@@H]2N=C(c3ccc(Cl)cc3)c3c(sc(C)c3C)-n3c(C)nnc32)C(C)(C)C)cc1 [MZ1]
- CC50 [5]: > 50 µM
- IC50 [6]: 1.3 to 1.7 µM
- IC50 [2, 10]: 1.3 µM
- IC50 [3, 11]: 1.7 µM
- Selectivity Index CC50/IC50 [3]: >30

Compound: Cc1cc(Nc2ccc(NC(=O)c3ccc(Nc4ccnc5ccccc45)cc3)cc2)nc(N)n1 [SGI-1027]
- CC50 [7]: > 50 µM
- Delay in parasite recrudescence time (difference between median recrudescence times), ART/ART + compound vs ART/ART ([8]; quiescence induced with ART 3 µM 6 h, then 48 h ART + compound at its IC90): 8 days
- Delay in recrudescence time, DHA/DHA + compound vs DHA/DHA ([8]; quiescence induced with DHA 700 nM 6 h, then 48 h DHA + compound at its IC90): ≥ 6 days
- IC50 [2, 10]: 0.054 ± 0.022 µM
- IC50 [3, 11]: 0.063 ± 0.013 µM
- Selectivity Index CC50/IC50 [3]: >790

Compound: Cc1ccc(NC(=O)CCCCCC(=O)Cc2ccccc2N)cc1 [TC-H 106]
- CC50 [9]: 6.3 µM
- IC50 [2, 10]: > 10 µM
- IC50 [3, 11]: > 10 µM
- Selectivity Index CC50/IC50 [3]: <0.6
